This note sets out measurements from the supplement of paper PMC12463676, “Small-molecule dissolution of stress granules by redox modulation benefits ALS models” (Nature Chemical Biology, 2025).

Compound in one assay: NC(=O)CCCCC1CCSS1 [lipoamide]
The assay is described as follows: thermal stability z-score vs DMSO; higher = more thermally stabilized by treatment. To be noted: HeLa, lipoamide concentration 100 µM. The protocol: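 Cellular thermal proteome profiling in HeLa cells. Cells were treated with 100 µM lipoamide for 1 h, with or without 1 mM arsenate for a further 1 h, then heated to ten temperatures (37-66.3 °C), and soluble protein was quantified by TMT mass spectrometry relative to 0.1% DMSO controls. The thermal stability score (sum of log2 fold changes minus the abundance score) was transformed to a z-score; mean of n = 3 experiments.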

Compound in another assay: O=[As]([O-])(O)O.[K+] [potassium arsenate]
Described as above. To be noted: HeLa; arsenate concentration 1 mM. How it is done: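 Cellular thermal proteome profiling in HeLa cells treated with 1 mM arsenate for 1 h (DMSO pretreatment), heated to ten temperatures (37-66.3 °C). Soluble protein was quantified by TMT mass spectrometry relative to DMSO controls; the thermal stability score was transformed to a z-score; mean of n = 3 experiments.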

Setting [1] is: arsenate co-treatment: 1 mM arsenate 1 h.
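Note: each temperature applied for 3 min, abundance score taken as mean log2 fold change at the two lowest temperatures, z-score obtained by mean subtraction and division by SD.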

UniProt Q15796, sequence (Q15796 whole entry): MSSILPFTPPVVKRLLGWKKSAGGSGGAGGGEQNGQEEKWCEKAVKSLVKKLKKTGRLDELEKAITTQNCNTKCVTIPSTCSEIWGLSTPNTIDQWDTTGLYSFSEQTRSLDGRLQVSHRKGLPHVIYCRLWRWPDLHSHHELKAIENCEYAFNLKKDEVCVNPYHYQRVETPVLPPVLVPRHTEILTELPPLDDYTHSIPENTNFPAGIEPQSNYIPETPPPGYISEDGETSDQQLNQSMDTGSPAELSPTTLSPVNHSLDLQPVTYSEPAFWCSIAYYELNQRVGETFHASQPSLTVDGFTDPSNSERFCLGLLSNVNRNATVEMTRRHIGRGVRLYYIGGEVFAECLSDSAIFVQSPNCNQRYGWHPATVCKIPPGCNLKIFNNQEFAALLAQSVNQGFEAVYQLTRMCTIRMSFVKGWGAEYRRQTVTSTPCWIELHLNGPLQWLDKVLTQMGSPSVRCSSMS
UniProt Q9BPX3, sequence (Q9BPX3 whole entry, looked up): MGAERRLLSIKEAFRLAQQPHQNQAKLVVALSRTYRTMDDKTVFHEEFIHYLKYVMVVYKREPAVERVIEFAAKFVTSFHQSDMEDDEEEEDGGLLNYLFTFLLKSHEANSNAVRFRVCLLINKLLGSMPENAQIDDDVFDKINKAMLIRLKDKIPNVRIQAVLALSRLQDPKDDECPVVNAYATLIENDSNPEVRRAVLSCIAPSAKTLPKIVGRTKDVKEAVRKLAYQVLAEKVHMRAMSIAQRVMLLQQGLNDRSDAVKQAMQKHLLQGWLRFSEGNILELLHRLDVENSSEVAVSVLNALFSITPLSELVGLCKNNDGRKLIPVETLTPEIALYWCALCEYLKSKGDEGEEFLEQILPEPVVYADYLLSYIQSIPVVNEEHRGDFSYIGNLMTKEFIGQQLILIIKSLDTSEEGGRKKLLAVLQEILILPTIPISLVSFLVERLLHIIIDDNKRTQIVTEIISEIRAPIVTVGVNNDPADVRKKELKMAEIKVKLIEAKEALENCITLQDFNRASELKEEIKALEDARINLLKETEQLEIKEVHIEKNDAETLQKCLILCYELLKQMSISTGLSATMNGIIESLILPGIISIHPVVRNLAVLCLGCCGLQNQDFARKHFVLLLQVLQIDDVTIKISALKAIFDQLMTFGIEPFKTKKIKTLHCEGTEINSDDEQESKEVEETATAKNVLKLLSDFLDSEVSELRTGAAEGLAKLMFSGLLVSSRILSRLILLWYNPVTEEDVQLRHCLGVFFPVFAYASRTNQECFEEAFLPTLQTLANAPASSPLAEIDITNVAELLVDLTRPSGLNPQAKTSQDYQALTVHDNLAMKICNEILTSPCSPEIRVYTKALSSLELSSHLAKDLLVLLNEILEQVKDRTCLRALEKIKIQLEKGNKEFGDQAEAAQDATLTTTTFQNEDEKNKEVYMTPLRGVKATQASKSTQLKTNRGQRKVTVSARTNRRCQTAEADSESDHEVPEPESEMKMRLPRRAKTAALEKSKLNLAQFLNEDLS
UniProt Q9Y4P8, sequence (Q9Y4P8 whole entry): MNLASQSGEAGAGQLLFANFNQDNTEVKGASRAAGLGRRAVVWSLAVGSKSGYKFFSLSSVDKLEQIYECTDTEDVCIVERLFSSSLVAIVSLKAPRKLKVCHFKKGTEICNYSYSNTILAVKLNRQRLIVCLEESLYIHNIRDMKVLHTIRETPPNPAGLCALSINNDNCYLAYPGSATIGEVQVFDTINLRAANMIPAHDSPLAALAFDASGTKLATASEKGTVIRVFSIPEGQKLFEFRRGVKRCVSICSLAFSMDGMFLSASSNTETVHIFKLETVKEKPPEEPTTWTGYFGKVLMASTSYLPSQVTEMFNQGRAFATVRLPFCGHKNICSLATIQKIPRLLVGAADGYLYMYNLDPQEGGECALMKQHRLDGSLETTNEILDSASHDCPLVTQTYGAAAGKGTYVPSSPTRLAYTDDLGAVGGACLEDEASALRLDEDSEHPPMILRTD
UniProt P13693, sequence (P13693 whole entry): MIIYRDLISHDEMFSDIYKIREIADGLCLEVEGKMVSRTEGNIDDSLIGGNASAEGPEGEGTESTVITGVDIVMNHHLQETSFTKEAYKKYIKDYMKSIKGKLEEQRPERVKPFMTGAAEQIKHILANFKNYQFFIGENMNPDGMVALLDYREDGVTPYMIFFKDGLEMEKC
UniProt Q8WU90, sequence (Q8WU90 whole entry): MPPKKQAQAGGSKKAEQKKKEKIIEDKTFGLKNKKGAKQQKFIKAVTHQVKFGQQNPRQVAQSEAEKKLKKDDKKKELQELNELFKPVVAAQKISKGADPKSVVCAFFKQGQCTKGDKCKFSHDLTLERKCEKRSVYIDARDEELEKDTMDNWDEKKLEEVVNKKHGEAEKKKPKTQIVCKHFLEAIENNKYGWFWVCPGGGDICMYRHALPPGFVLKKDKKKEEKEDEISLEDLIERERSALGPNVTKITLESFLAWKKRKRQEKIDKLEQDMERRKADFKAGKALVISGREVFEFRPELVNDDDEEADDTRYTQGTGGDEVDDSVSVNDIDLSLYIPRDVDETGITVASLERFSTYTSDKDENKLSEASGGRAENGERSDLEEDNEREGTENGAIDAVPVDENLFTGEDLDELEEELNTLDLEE
UniProt O43390, sequence (O43390 whole entry): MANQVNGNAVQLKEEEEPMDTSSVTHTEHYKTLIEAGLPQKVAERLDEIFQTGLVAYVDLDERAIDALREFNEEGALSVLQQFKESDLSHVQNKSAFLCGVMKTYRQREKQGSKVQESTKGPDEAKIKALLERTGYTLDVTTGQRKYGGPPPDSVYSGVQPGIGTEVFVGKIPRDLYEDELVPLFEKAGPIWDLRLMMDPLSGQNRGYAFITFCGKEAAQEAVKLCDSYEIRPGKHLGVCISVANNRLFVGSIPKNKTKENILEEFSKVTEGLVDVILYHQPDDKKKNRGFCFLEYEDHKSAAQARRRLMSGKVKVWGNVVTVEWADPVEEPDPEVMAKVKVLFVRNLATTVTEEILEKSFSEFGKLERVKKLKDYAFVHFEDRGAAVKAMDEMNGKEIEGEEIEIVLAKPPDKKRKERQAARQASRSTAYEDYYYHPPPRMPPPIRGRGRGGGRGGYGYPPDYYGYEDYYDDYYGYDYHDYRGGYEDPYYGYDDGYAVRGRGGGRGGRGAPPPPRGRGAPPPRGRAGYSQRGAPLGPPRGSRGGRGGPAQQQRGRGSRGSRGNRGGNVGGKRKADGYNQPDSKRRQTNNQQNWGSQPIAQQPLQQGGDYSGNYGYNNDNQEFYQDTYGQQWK
UniProt P32970, sequence (P32970 whole entry): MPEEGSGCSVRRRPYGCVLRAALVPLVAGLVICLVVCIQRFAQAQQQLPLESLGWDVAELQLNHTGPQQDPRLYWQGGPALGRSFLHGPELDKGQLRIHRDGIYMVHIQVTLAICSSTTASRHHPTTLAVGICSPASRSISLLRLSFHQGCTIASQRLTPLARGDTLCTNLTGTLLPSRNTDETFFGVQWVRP
UniProt Q9P2N7, sequence (Q9P2N7 whole entry): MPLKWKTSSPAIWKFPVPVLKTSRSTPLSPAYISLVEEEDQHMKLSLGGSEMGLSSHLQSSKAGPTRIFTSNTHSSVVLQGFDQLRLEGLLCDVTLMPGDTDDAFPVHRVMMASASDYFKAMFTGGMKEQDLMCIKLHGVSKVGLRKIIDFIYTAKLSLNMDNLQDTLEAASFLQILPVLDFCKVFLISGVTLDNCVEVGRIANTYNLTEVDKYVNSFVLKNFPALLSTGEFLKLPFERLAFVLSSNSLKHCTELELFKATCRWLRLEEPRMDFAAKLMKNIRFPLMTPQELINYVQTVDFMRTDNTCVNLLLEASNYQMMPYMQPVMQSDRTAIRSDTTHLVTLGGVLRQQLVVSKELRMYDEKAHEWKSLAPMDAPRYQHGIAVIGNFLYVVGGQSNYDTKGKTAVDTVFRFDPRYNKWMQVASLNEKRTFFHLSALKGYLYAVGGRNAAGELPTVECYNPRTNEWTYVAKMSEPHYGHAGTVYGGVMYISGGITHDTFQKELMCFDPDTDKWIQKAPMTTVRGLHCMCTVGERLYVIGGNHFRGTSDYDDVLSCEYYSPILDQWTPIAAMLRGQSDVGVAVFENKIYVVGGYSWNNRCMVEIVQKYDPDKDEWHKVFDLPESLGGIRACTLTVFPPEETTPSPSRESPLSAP
UniProt Q9HC44, sequence (Q9HC44 whole entry): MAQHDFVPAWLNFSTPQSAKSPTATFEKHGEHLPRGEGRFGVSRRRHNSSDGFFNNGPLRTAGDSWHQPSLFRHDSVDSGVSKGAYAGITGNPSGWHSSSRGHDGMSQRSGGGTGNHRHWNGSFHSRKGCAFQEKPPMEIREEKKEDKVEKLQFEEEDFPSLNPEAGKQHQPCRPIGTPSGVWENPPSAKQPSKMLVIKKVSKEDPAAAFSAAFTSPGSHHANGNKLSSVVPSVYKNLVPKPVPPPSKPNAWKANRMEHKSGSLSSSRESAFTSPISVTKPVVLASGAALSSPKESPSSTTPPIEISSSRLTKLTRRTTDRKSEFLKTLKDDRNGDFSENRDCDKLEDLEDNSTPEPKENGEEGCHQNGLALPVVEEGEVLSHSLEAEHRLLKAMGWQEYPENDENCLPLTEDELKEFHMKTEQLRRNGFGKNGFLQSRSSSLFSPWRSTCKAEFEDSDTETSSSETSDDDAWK
UniProt Q3KQV9, sequence (Q3KQV9 whole entry): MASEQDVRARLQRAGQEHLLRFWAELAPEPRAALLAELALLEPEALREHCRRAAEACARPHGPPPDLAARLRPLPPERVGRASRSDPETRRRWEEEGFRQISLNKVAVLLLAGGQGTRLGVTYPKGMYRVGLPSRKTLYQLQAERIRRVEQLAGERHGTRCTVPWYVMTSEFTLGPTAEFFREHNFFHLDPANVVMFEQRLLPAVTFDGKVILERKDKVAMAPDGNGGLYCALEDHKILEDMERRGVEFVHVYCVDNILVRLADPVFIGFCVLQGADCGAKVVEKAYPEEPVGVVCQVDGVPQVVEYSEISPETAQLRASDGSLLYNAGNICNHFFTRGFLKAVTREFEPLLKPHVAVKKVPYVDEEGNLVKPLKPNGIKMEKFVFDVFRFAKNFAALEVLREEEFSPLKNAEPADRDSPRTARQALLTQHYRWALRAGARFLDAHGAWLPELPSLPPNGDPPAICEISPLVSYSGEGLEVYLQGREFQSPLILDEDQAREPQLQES

For the target RAB21 (UniProt Q9UL25), the thermal stability z-score turned out to be 0.0174 with lipoamide (setting [1]), 0.118 with lipoamide (arsenate co-treatment: none) and 0.119 with potassium arsenate.
The matching figures for GLOD4 (UniProt Q9HC38): 2.19, 2.33 and 0.311.
The matching figures for SNAPIN (UniProt O95295): 0.164, 0.647 and 0.267.
Take NCAPG (UniProt Q9BPX3): the thermal stability z-score with lipoamide (setting [1]) was -0.382; with lipoamide (arsenate co-treatment: none), 0.295; with potassium arsenate it was 0.883.
For MED6 (UniProt O75586) the same measures were 0.171, 0.0477 and 0.00858.
Regarding TPD52 (UniProt P55327), the thermal stability z-score in the assay with lipoamide (setting [1]) worked out at 2.04; in the assay with lipoamide (arsenate co-treatment: none) it was 2.1; with potassium arsenate, 1.35.
Turning to ZC3H15 (UniProt Q8WU90), the thermal stability z-score was -0.032 with lipoamide (setting [1]), -0.0996 with lipoamide (arsenate co-treatment: none) and 0.0266 with potassium arsenate.
The matching figures for RBBP6 (UniProt Q7Z6E9): 0.06, -0.0854 and -0.263.
As for RNF20 (UniProt Q5VTR2), the thermal stability z-score was -0.218 with lipoamide (setting [1]), -0.026 with lipoamide (arsenate co-treatment: none) and -0.112 with potassium arsenate.
As for MTR (UniProt Q99707), the results for the thermal stability z-score with lipoamide (setting [1]), in the assay with lipoamide (arsenate co-treatment: none) and in the assay with potassium arsenate were -0.354, -0.00141 and 0.289, respectively.
Regarding KNTC1 (UniProt P50748), the thermal stability z-score was -0.59 in the assay with lipoamide (setting [1]), -0.253 in the assay with lipoamide (arsenate co-treatment: none) and 0.572 in the assay with potassium arsenate.
The matching figures for DHX29 (UniProt Q7Z478): 0.104, 0.27 and 0.267.
The matching figures for GPBP1L1 (UniProt Q9HC44): -0.469, -0.326 and 0.365.
For MALSU1 (UniProt Q96EH3) the same measures were -1.47, -1.5 and -1.01.
With HNRNPR (UniProt O43390), the thermal stability z-score was 0.306 with lipoamide (setting [1]), -0.456 with lipoamide (arsenate co-treatment: none) and -1.96 with potassium arsenate.
For TARS (UniProt P26639) the same measures were 0.0423, -0.0639 and 0.853.
Regarding UBXN8 (UniProt O00124), the thermal stability z-score in the assay with lipoamide (setting [1]) is -1.43; in the assay with lipoamide (arsenate co-treatment: none) it was -0.528; with potassium arsenate it was -0.0404.
For UBR7 (UniProt Q8N806) the same measures were -0.392, -0.575 and 0.457.
As to RNF123 (UniProt Q5XPI4), the thermal stability z-score was -0.194 with lipoamide (setting [1]), -0.0174 with lipoamide (arsenate co-treatment: none) and -0.445 in the assay with potassium arsenate.
For CKS2 (UniProt P33552), the thermal stability z-score with lipoamide (setting [1]) was found to be 0.199; in the assay with lipoamide (arsenate co-treatment: none), 0.17; with potassium arsenate, 0.179.
The matching figures for CD70 (UniProt P32970): 1.03, 0.355 and -0.313.
The matching figures for MASTL (UniProt Q96GX5): -0.0186, -0.102 and -0.0433.
The matching figures for SSR4 (UniProt P51571): -1.7, -1.43 and -0.649.
In the case of RPS14 (UniProt P62263), the thermal stability z-score in the assay with lipoamide (setting [1]) was 0.641; with lipoamide (arsenate co-treatment: none), 0.21; with potassium arsenate, -0.926.
Take BORCS5|LOH12CR1: the thermal stability z-score in the assay with lipoamide (setting [1]) is 1.36; in the assay with lipoamide (arsenate co-treatment: none), 1.29; in the assay with potassium arsenate it was 0.518.
For WIPI2 (UniProt Q9Y4P8) the same measures were 0.0343, 0.463 and -0.0998.
With CD63 (UniProt P08962), the results for the thermal stability z-score with lipoamide (setting [1]), with lipoamide (arsenate co-treatment: none) and with potassium arsenate were 0.764, 0.402 and 0.0332, respectively.
The matching figures for RPL13 (UniProt P26373): -0.064, 0.00879 and -1.05.
TEAD1 (UniProt P28347): the thermal stability z-score with lipoamide (setting [1]) was 0.133; with lipoamide (arsenate co-treatment: none), 0.196; in the assay with potassium arsenate it was -0.00363.
On to KIRREL (UniProt Q96J84), for which the thermal stability z-score in the assay with lipoamide (setting [1]) is 0.0439; in the assay with lipoamide (arsenate co-treatment: none), -0.449; with potassium arsenate, 0.892.
The matching figures for SMAD2 (UniProt Q15796): -0.492, 0.118 and -1.26.
The matching figures for MB21D2 (UniProt Q8IYB1): 0.116, -0.198 and 0.483.
Turning to FAM83B (UniProt Q5T0W9), the thermal stability z-score with lipoamide (setting [1]) was -0.567; with lipoamide (arsenate co-treatment: none), -0.89; in the assay with potassium arsenate, -2.02.
For PTPN6 (UniProt P29350) the same measures were -0.0229, 0.0958 and -0.0221.
Regarding PRPF4 (UniProt O43172), the thermal stability z-score with lipoamide (setting [1]) is 1.82; in the assay with lipoamide (arsenate co-treatment: none), 1.6; in the assay with potassium arsenate it was 0.565.
On to KLHL13 (UniProt Q9P2N7), for which the thermal stability z-score with lipoamide (setting [1]) was -0.764; with lipoamide (arsenate co-treatment: none) it was -0.242; in the assay with potassium arsenate, 0.825.
For ERGIC1 (UniProt Q969X5) the same measures were -1.39, -1.4 and 0.483.
The matching figures for SIN3B (UniProt O75182): 0.0836, 0.279 and -0.327.
UAP1L1 (UniProt Q3KQV9): the thermal stability z-score is 0.536 in the assay with lipoamide (setting [1]), 0.556 with lipoamide (arsenate co-treatment: none) and -0.793 in the assay with potassium arsenate.
On to STK11IP (UniProt Q8N1F8), for which the thermal stability z-score was -0.747 with lipoamide (setting [1]), -0.512 with lipoamide (arsenate co-treatment: none) and 0.324 with potassium arsenate.
For TPT1 (UniProt P13693) the same measures were 0.494, 0.196 and -0.445.
The matching figures for MRPS28 (UniProt Q9Y2Q9): 0.366, 0.352 and -0.842.
